Literature values as cited in US6900203B2, “Optically active fluorinated vasoconstrictors, methods for making them, and anesthetic formulations comprising them” (Polium Technologies, Inc., priority 2002, dated 2005).
Where two headings read alike, the source gives them in different places.

Columns and labels:
[1] = tested on: α1/β adrenergic receptors
[2] = tested on: α2/β adrenergic receptors
[3] = target: β2 (Homo sapiens, UniProt P07550); conditions: read-out: Receptor affinity β2
[4] = target: α2-receptors
[5] = target: α1-receptors; conditions: read-out: Receptor affinity α1
[6] = target: β1 (Homo sapiens, UniProt P08588); conditions: read-out: Receptor affinity β1
[7] = target: α-receptors; conditions: order of magnitude

β1, sequence (P08588 whole entry): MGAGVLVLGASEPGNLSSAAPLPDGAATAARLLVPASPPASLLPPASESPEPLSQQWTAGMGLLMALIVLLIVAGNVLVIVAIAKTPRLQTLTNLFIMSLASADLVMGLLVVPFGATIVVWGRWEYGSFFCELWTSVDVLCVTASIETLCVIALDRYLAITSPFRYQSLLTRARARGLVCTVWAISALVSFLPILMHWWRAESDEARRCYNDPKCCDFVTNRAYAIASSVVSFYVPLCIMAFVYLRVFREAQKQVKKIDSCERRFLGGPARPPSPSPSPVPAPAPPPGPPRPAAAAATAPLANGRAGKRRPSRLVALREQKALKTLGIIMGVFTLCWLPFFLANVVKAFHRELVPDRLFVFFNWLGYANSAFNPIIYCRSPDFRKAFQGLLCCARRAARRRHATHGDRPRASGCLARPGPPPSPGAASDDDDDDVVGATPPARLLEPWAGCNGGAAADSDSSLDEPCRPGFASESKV
β2, sequence (P07550 whole entry): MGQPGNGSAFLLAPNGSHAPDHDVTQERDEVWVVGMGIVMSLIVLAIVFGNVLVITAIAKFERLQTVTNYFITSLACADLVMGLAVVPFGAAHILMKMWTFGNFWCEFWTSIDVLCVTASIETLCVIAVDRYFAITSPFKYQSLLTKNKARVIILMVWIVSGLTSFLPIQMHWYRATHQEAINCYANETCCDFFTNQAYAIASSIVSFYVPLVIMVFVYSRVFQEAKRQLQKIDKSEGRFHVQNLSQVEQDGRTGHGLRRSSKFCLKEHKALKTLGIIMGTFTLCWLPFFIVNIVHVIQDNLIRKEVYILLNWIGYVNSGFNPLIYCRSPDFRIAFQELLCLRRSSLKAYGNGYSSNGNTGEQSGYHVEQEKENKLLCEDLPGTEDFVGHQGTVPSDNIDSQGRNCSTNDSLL

SMILES | α1/β selectivity [1] | α2/β selectivity [2] [fold] | Ki [3] [µM] | Ki ([4]; read-out: Receptor affinity α2) [µM] | Ki [5] [µM] | Ki [6] [µM] | Ki ([4]; order of magnitude, read-out: binding constant with respect to α2-receptors) [µM] | binding constants with α-receptors [7]
CNCC(O)c1cc(O)ccc1F (stereo not shown) [6F-phenylephrine] | 86-140 fold | 780 | – | – | – | – | – | –
CNC[C@H](O)c1ccc(O)c(O)c1F [(R)-2F-epinephrine] | – | – | 0.11 ± 0.03 | 0.067 ± 0.003 | ~25 | 0.56 ± 0.03 | – | –
CNC[C@H](O)c1cc(O)c(O)cc1F [(R)-6F-epinephrine, 2-methylamino-1R-[(3,4-dihydroxy-6-fluoro)-phenyl]ethanol] | – | – | 38 ± 7 | 0.013 ± 0.002 | 2.5 ± 0.1 | ~100 | – | –
CNC[C@H](O)c1ccc(O)c(O)c1 [(R)-epinephrine] | – | – | – | 0.013 ± 0.002 | – | – | ~0.01 | –
CNC[C@H](O)c1cccc(O)c1 [(R)-phenylephrine, 2-methylamino-1R-(3-hydroxyphenyl)ethanol] | 2-5 fold | 33 | – | – | – | – | – | on the order of several
CNC[C@@H](O)c1ccc(O)c(O)c1F [(S)-2F-epinephrine] | – | – | ~25 | 0.053 ± 0.001 | ~40 | ~150 | – | –
CNC[C@@H](O)c1cc(O)c(O)cc1F [(S)-6F-epinephrine] | – | – | ~90 | 0.078 ± 0.001 | ~70 | ~400 | – | –
CNC[C@@H](O)c1ccc(O)c(O)c1 [(S)-epinephrine] | – | – | – | 0.045 ± 0.003 | ~20 | – | – | –
